Experimental data published in ChEMBL document CHEMBL1149518, “High affinity inhibitors of the dopamine transporter (DAT): novel biotinylated ligands for conjugation to quantum dots” (Bioorg Med Chem Lett, 2006).

Molecular target: Sodium-dependent dopamine transporter (Homo sapiens, UniProt Q01959)
Assay: Inhibition of [3H]dopamine uptake at dopamine transporter

Sequence of Sodium-dependent dopamine transporter (Q01959 whole entry): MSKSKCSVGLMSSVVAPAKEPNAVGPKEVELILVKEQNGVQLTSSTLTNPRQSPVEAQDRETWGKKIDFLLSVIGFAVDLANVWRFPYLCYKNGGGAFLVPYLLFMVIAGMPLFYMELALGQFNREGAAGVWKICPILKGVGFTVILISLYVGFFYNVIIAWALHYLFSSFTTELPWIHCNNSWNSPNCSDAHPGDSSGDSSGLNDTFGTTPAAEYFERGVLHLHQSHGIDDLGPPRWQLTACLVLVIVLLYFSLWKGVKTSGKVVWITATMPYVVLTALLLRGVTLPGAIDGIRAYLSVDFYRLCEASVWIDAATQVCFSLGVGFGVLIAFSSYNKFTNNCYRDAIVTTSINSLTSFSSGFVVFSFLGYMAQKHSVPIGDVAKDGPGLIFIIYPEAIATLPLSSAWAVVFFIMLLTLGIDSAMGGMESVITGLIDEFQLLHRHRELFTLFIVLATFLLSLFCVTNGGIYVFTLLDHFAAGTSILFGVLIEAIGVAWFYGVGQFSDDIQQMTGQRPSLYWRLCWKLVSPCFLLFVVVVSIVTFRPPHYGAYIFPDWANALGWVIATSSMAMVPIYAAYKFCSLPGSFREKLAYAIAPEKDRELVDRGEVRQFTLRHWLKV

Compound O=C(CCCCCCCCCCS)Nc1ccc(CCCN2CCN(CCOC(c3ccc(F)cc3)c3ccc(F)cc3)CC2)cc1 has an IC50 of 18 nM.
For O=C(CCCCCCCCCCS)Nc1ccc(CCCN2CCN(CCOC(c3ccccc3)c3ccccc3)CC2)cc1, the IC50 was 10 nM.
